# Patent publication US8916702B2 (priority 2012, dated 2014)
# Where two headings read alike, the source gives them in different places.
# System: HCV pseudoparticles (genotype 1a HCV E1 and E2 envelope, H77C isolate)
# Experiment: microbe, parasite or virus in culture
# Format: cell-based
# Details: Hepatitis C virus
# [1] = Huh-7, 48 h, read-out: Activity (EC50 class), HCV pseudoparticles, Huh7 cells, luciferase 2 days after infection, average of duplicates
# [2] = Huh-7, read-out: Activity (EC50 class), HCV pseudoparticles (genotype 1a, H77C) in Huh7 cells, EC50 expressed as class A/B
# [3] = Huh-7, 48 h, read-out: Activity (EC50 class), HCV pseudoparticle infection of Huh7 cells, luciferase 2 days after infection, EC50 expressed as class A/B
# [4] = Huh-7, 48 h, HCV pseudoparticles (genotype 1a, H77C) in Huh7 cells, average of duplicate, luciferase 2 days after infection
# [5] = Huh-7, 48 h, HCV pseudoparticle infection of Huh7 cells, luciferase 2 days after infection, average of duplicates
SMILES,EC50 [2] [nM],EC50 [3] [nM],also measured
O=C(NC[C@H](NC(=O)c1ccc(Nc2nc(NC3(c4ccc(Cl)cc4)CC3)nc(OCC(F)(F)F)n2)cc1)C(=O)Cl)C(=O)Nc1cccc(C(=O)Nc2ccccc2)c1 [Compound 3747],–,–,EC50 [1]: 0.01 to 10 nM
COC(=O)[C@H](CNC(=O)C(=O)Nc1ccc(Cn2ccnc2C)cc1)NC(=O)c1ccc(Nc2nc(NC3(c4ccc(Cl)cc4)CC3)nc(OCC(F)(F)F)n2)cc1 [Compound 3204],0.01 to 10,–,–
COC(=O)[C@H](CNC(=O)C(=O)Nc1ccc(N)nc1)NC(=O)c1ccc(Nc2nc(NC3(c4ccc(Cl)cc4)CC3)nc(OCC(F)(F)F)n2)cc1 [Compound 3705],–,–,EC50 [1]: 0.01 to 10 nM
Cn1nccc1NC(=O)C(=O)NCC[C@H](NC(=O)c1ccc(Nc2nc(NC3(c4ccc(Cl)cc4)CC3)nc(OCC(F)(F)F)n2)cc1)C(=O)O [Compound 1281],–,0.01 to 10,–
Cc1cccc2sc(NC(=O)C(=O)NCC(C)(C)CNC(=O)c3ccc(Nc4nc(NC5(c6ccc(Cl)cc6)CC5)nc(OCC(F)(F)F)n4)cc3)nc12 [Compound 3805],–,–,EC50 [1]: 0.01 to 10 nM
CC(C)(CNC(=O)C(=O)Nc1ccc(-c2ccc(C(=O)O)cc2)cc1)CNC(=O)c1ccc(Nc2nc(NC3(c4ccc(Cl)cc4)CC3)nc(OCC(F)(F)F)n2)cc1 [Compound 1542],–,0.01 to 10,–
COC(=O)[C@H](CCNC(=O)C(=O)Nc1ccc(OC(F)F)cc1)NC(=O)c1ccc(Nc2nc(NC3(c4ccc(Cl)cc4)CC3)nc(OCC(F)(F)F)n2)cc1 [Compound 3332],0.01 to 10,–,–
CC(C)(CNC(=O)C(=O)NCc1ccccc1-c1ccccc1)CNC(=O)c1ccc(Nc2nc(NC3(c4ccc(Cl)cc4)CC3)nc(OCC(F)(F)F)n2)cc1 [Compound 3035],0.01 to 10,–,–
CC(C)(CNC(=O)C(=O)Nc1ncc(F)s1)CNC(=O)c1ccc(Nc2nc(NC3(c4ccc(Cl)cc4)CC3)nc(OCC(F)(F)F)n2)cc1 [Compound 3239],0.01 to 10,–,–
CC(C)(CNC(=O)C(=O)Nc1ccccc1-c1nnco1)CNC(=O)c1ccc(Nc2nc(NC3(c4ccc(Cl)cc4)CC3)nc(OCC(F)(F)F)n2)cc1 [Compound 3246],0.01 to 10,–,–
O=C(NCCc1cccnc1)C(=O)NC[C@H](NC(=O)c1ccc(Nc2nc(NC3(c4ccc(Cl)cc4)CC3)nc(OCC(F)(F)F)n2)cc1)C(=O)O [Compound 1405],–,0.01 to 10,–
COC(=O)/C(CCNC(=O)C(=O)Nc1cccc(-c2ccncc2)c1)=N\C(=O)c1ccc(Nc2nc(NC3(c4ccc(Cl)cc4)CC3)nc(OCC(F)(F)F)n2)cc1 [Compound 3591],0.01 to 10,–,–
CC(C)(CNC(=O)C(=O)NC1CC1)CNC(=O)c1ccc(Nc2nc(NC3(c4ccc(Cl)cc4)CC3)nc(OCC(F)(F)F)n2)cc1 [Compound 3066],0.01 to 10,–,EC50 [4]: 0.032 nM
COC(=O)[C@H](CCNC(=O)C(=O)Nc1ccccc1OC)NC(=O)c1ccc(Nc2nc(NC3(c4ccc(Cl)cc4)CC3)nc(OCC(F)(F)F)n2)cc1 [Compound 1234],–,0.01 to 10,–
O=C(NCC[C@H](NC(=O)c1ccc(Nc2nc(NC3(c4ccc(Cl)cc4)CC3)nc(OCC(F)(F)F)n2)cc1)C(=O)O)C(=O)Nc1cccc(-c2cccnc2)c1 [Compound 3652],–,–,"EC50 (Huh-7, 48 h, HCV pseudoparticles, Huh7 cells, luciferase 2 days after infection, average of duplicates): 0.45 nM; EC50 [1]: 0.01 to 10 nM"
CN(C(=O)C(=O)NCC[C@H](NC(=O)c1ccc(Nc2nc(NC3(c4ccc(Cl)cc4)CC3)nc(OCC(F)(F)F)n2)cc1)C(=O)O)c1ccccc1 [Compound 1277],–,0.01 to 10,–
COC(=O)[C@H](CCNC(=O)C(=O)NC[C@H]1C[C@H]1c1ccc(C)cc1)NC(=O)c1ccc(Nc2nc(NC3(c4ccc(Cl)cc4)CC3)nc(OCC(F)(F)F)n2)cc1 [Compound 1393],–,0.01 to 10,–
CC(CNC(=O)C(=O)Nc1ccc(F)cc1)CNC(=O)c1ccc(Nc2nc(NC3(c4ccc(Cl)cc4)CC3)nc(OCC(F)(F)F)n2)cc1 (centres unmarked) [Compound 3335],0.01 to 10,–,–
CC(NC(=O)C(=O)NCC[C@H](NC(=O)c1ccc(Nc2nc(NC3(c4ccc(Cl)cc4)CC3)nc(OCC(F)(F)F)n2)cc1)C(=O)O)C1CC1 (some centres unmarked) [Compound 1440],–,0.01 to 10,–
CC(C)(CNC(=O)C(=O)Nc1cc(F)c(F)c(F)c1)CNC(=O)c1ccc(Nc2nc(NC3(c4ccc(Cl)cc4)CC3)nc(OCC(F)(F)F)n2)cc1 [Compound 1558],–,0.01 to 10,–
COC(=O)[C@H](CCNC(=O)C(=O)NCC1CCCc2ccccc21)NC(=O)c1ccc(Nc2nc(NC3(c4ccc(Cl)cc4)CC3)nc(OCC(F)(F)F)n2)cc1 (some centres unmarked) [Compound 1322],–,0.01 to 10,–
CCOc1ccc(NC(=O)C(=O)NC[C@H](NC(=O)c2ccc(Nc3nc(NC4(c5ccc(Cl)cc5)CC4)nc(OCC(F)(F)F)n3)cc2)C(=O)O)cc1 [Compound 3293],0.01 to 10,–,–
CCOC(=O)/C=C/c1ccc(NC(=O)C(=O)NCC(C)(C)CNC(=O)c2ccc(Nc3nc(NC4(c5ccc(Cl)cc5)CC4)nc(OCC(F)(F)F)n3)cc2)cc1 [Compound 3144],0.01 to 10,–,–
CC(C)(CNC(=O)C(=O)N1CCc2ccccc2C1)CNC(=O)c1ccc(Nc2nc(NC3(c4ccc(Cl)cc4)CC3)nc(OCC(F)(F)F)n2)cc1 [Compound 1545],–,0.01 to 10,–

SMILES,EC50 [2] [nM],EC50 [3] [nM],also measured
COC(=O)[C@H](CNC(=O)C(=O)N(C)c1ccccc1)NC(=O)c1ccc(Nc2nc(NC3(c4ccc(Cl)cc4)CC3)nc(OCC(F)(F)F)n2)cc1 [Compound 1257],–,0.01 to 10,–
O=C(NCC[C@H](NC(=O)c1ccc(Nc2nc(NC3(c4ccc(Cl)cc4)CC3)nc(OCC(F)(F)F)n2)cc1)C(=O)O)C(=O)Nc1ccc(N2CCOCC2)nc1 [Compound 3628],–,–,EC50 [1]: 0.01 to 10 nM
O=C(NC[C@H](NC(=O)c1ccc(Nc2nc(NC3(c4ccc(Cl)cc4)CC3)nc(OCC(F)(F)F)n2)cc1)C(=O)O)C(=O)Nc1ccc(Oc2cccnc2)cc1 [Compound 3290],0.01 to 10,–,–
COC(=O)[C@@H](CCNC(=O)C(=O)NCC1(Cn2ccnc2)CC1)NC(=O)c1ccc(Nc2nc(NC3(c4ccc(Cl)cc4)CC3)nc(OCC(F)(F)F)n2)cc1 [Compound 1385],–,0.01 to 10,–
COC(=O)[C@H](CNC(=O)C(=O)NCc1cc(F)cc(F)c1)NC(=O)c1ccc(Nc2nc(NC3(c4ccc(Cl)cc4)CC3)nc(OCC(F)(F)F)n2)cc1 [Compound 1138],–,0.01 to 10,EC50 [5]: 0.81 nM
CCCNc1ccc(NC(=O)C(=O)NCC[C@H](NC(=O)c2ccc(Nc3nc(NC4(c5ccc(Cl)cc5)CC4)nc(OCC(F)(F)F)n3)cc2)C(=O)O)cn1 [Compound 3657],–,–,EC50 [1]: 0.01 to 10 nM
COC(=O)C(CNC(=O)C(=O)NC1CC(C)(C)CC(C)(C)C1)NC(=O)c1ccc(Nc2nc(NC3(c4ccc(Cl)cc4)CC3)nc(OCC(F)(F)F)n2)cc1 (centres unmarked) [Compound 1047],–,0.01 to 10,–
NC(=O)C(=O)N[C@H](CCNC(=O)c1ccc(Nc2nc(NC3(c4ccc(Cl)cc4)CC3)nc(OCC(F)(F)F)n2)cc1)C(=O)O [Compound 3491],10 to 1000,–,–
Cc1cc(NC(=O)C(=O)NCCCCNC(=O)c2ccc(Nc3nc(NC4(c5ccc(Cl)cc5)CC4)nc(OCC(F)(F)F)n3)cc2)no1 [Compound 3394],0.01 to 10,–,–
O=C(NCC[C@@H](NC(=O)c1ccc(Nc2nc(NC3(c4ccc(Cl)cc4)CC3)nc(OCC(F)(F)F)n2)cc1)C(=O)O)C(=O)Nc1cccc(F)c1F [Compound 1530],–,0.01 to 10,–
CC(C)(CNC(=O)C(=O)Nc1cccc2c1Cc1ccccc1-2)CNC(=O)c1ccc(Nc2nc(NC3(c4ccc(Cl)cc4)CC3)nc(OCC(F)(F)F)n2)cc1 [Compound 3356],0.01 to 10,–,–
COC(=O)[C@H](CNC(=O)C(=O)Nc1ccc(Oc2cccnc2)cc1)NC(=O)c1ccc(Nc2nc(NC3(c4ccc(Cl)cc4)CC3)nc(OCC(F)(F)F)n2)cc1 [Compound 3207],0.01 to 10,–,–
O=C(Nc1ccc(Oc2nn[nH]n2)cc1)C(=O)NC1CCCC1CNC(=O)c1ccc(Nc2nc(NC3(c4ccc(Cl)cc4)CC3)nc(OCC(F)(F)F)n2)cc1 (centres unmarked) [Compound 1494],–,0.01 to 10,–
COC(=O)[C@H](CNC(=O)C(=O)N[C@H]1C[C@H]2C3C2[C@]31C)NC(=O)c1ccc(Nc2nc(NC3(c4ccc(Cl)cc4)CC3)nc(OCC(F)(F)F)n2)cc1 (some centres unmarked) [Compound 1054],–,0.01 to 10,–
COC(=O)[C@H](CCNC(=O)C(=O)Nc1ccc(C(N)=O)cc1)NC(=O)c1ccc(Nc2nc(NC3(c4ccc(Cl)cc4)CC3)nc(OCC(F)(F)F)n2)cc1 [Compound 3116],0.01 to 10,–,–
O=C(NC[C@H](NC(=O)c1ccc(Nc2nc(NC3(c4ccc(Cl)cc4)CC3)nc(OCC(F)(F)F)n2)cc1)C(=O)Cl)C(=O)Nc1cccc(-n2cnnc2)c1 [Compound 3784],–,–,EC50 [1]: 0.01 to 10 nM
CCOc1ccc(NC(=O)C(=O)NC[C@H](NC(=O)c2ccc(Nc3nc(NC4(c5ccc(Cl)cc5)CC4)nc(OCC(F)(F)F)n3)cc2)C(=O)OC)cc1 [Compound 3210],0.01 to 10,–,EC50 [4]: 0.75 nM
COC(=O)[C@H](CCNC(=O)C(=O)Nc1ccccn1)NC(=O)c1ccc(Nc2nc(NC3(c4ccc(Cl)cc4)CC3)nc(OCC(F)(F)F)n2)cc1 [Compound 1237],–,0.01 to 10,EC50 [5]: 0.77 nM
COC(=O)[C@H](CNC(=O)C(=O)NC1CCCCC1O)NC(=O)c1ccc(Nc2nc(NC3(c4ccc(Cl)cc4)CC3)nc(OCC(F)(F)F)n2)cc1 (some centres unmarked) [Compound 1051],–,0.01 to 10,–
CC(C)(CNC(=O)C(=O)Nc1ccc(-c2nn[nH]n2)cc1)CNC(=O)c1ccc(Nc2nc(NC3(c4ccc(Cl)cc4)CC3)nc(OCC(F)(F)F)n2)cc1 [Compound 1495],–,0.01 to 10,–
COC(=O)[C@H](CNC(=O)C(=O)NCc1c(F)cccc1F)NC(=O)c1ccc(Nc2nc(NC3(c4ccc(Cl)cc4)CC3)nc(OCC(F)(F)F)n2)cc1 [Compound 1135],–,0.01 to 10,EC50 [5]: 1.92 nM
CC(C)(CNC(=O)C(=O)Nc1ccc(C#N)cc1)CNC(=O)c1ccc(Nc2nc(NC3(c4ccc(Cl)cc4)CC3)nc(OCc3ccccc3F)n2)cc1 [Compound 3853],–,–,EC50 [1]: 0.01 to 10 nM
COC(=O)[C@H](CNC(=O)C(=O)Nc1ccc(-c2ncco2)cc1)NC(=O)c1ccc(Nc2nc(NC3(c4ccc(Cl)cc4)CC3)nc(OCC(F)(F)F)n2)cc1 [Compound 3209],0.01 to 10,–,–
